Experimental data reported in patent US20150150892A1, “METHODS AND PRODUCTS RELATED TO LUNG CANCER” (Massachusetts Institute of Technology, priority 2012, published 2015).

Key:
[1] = tested on: KrasLSL-G12D/wt (K) lung tumors; assay: MicroCT lung tumor volume in K mice; type: in vivo, mouse; conditions: single 1 mg/kg dose, 20 weeks post infection
Excerpt: FIG. 3: Bortezomib induces acute lung tumor regression in KrasLSL-G12D/wt;p53flox/flox (KP) mice, but not in KrasLSL-G12D/wt (K) mice. (3A and 3C) representative microCT images (n=6) of KP (3A) and K (3C) lung tumors prior to pre-treatment (D0) and 4 days (D4) after a single dose of vehicle control or bortezomib. (3 B and 3D) Quantification of tumor volume change (D4 compared with D0) in control- and bortezomib-treated mice. Each bar represents an individual tumor. P<10^−6 in KP mice (3B); P>0.05 in K mice (3D).
The Massachusetts Institute of Technology (Cambridge, Mass.) Institutional Animal Care and Use Committee approved all animal studies and procedures. To initiate lung tumors, cohorts of K or KP mice of 129svJae background were infected with 2.5×10^7 plaque-forming units of Adeno-Cre (University of Iowa) by intranasal inhalation, as described previously (2, 28). Mice were given bortezomib (LC Labs) in PBS [0.5% dimethylsulfoxide (DMSO)] at 1 mg/kg body weight i.v., as indicated. […]
At indicated time points, mice were scanned for 15 min under isoflurane anesthesia, using a small animal eXplore Locus microCT (GE Healthcare) at 45-μm resolution, 80 kV, with 450-mA current (47). […] Mice were imaged for 60 seconds, and signals in the lung were quantified using Xenogen software. […]

[2] = human, in vivo; cited from earlier work
[3] = tested on: K lung tumors; assay: CC3 immunohistochemistry in K lung tumors; type: in vivo, mouse; conditions: KrasLSL-G12D/wt mice, all time points assayed
Experimental: (§1) FIG. 4: Bortezomib induces apoptosis in KP lung tumors. (4A and 4B) H&E and CC3 immunohistochemistry staining (×200) in vehicle control- and bortezomib-treated KP (4A) and K (4B) lung tumors. (4C and 4D) quantification of CC3-positive cells in bortezomib-treated KP (4C) and K (4D) lung tumors at indicated time points. “0 hour” represents vehicle control-treated tumors. Error bars are SD (n>10 for each time point).
(§2) Mice were sacrificed by carbon dioxide asphyxiation. Lungs were inflated with 4% formalin (neutral buffered formalin), fixed overnight, and transferred to 70% ethanol. Lung lobes were embedded in paraffin and sectioned at 4 μm and stained with H&E for tumor pathologic study. For staining with anti-CC3 antibodies (#9661; Cell Signaling), lung tumor sections were dewaxed, rehydrated, and subjected to high-temperature antigen retrieval—10 minutes of boiling in a pressure cooker in 0.01 M citrate buffer, pH 6.0. Slides were stained overnight at 4° in 1:100 primary antibody. A goat anti-rabbit horseradish peroxidase-conjugated secondary antibody (Vector Laboratories) was used at 1:200 dilution, incubated for 1 hour at room temperature, followed by diaminobenzidine staining (Vector Laboratories). The number of positive cells per tumor area was quantified using Bioquant software from >10 tumors in ≧3 mice per group (2).

[4] = tested on: NF-κB target genes regulating apoptosis and survival; assay: QPCR of NF-κB targets in Bortezomib-resistant KP cell line; type: cell-based, mouse; conditions: 5 nM Bortezomib, 24 hours
Experimental: A representative resistant cell line was treated with control or 5 nM Bortezomib for 24 hours. Gene expression level was measured by QPCR and normalized to control-treated cells (set to 1). Error bars are s.d. (n=3).
(§3) RNA was purified using TRIzol (Invitrogen), according to the manufacturer's instructions. One microgram of RNA was reverse transcribed using the High-Capacity cDNA Reverse Transcription Kit (Applied Biosystems). Real-time PCR (quantitative PCR) amplification was performed using Taqman probes (Applied Biosystems). Data were normalized to the Gapdh (mouse) or GAPDH (human) levels.

[5] = tested on: NF-κB target genes in H2122 and H2009 cell lines; assay: QPCR of NF-κB target genes in human NSCLC cell lines; type: cell-based; conditions: 10 nM Bortezomib, 24 hours
Experimental: FIG. 8: Bortezomib inhibits NF-κB signaling in human NSCLC cells. H2122 (KRASG12C;TP53c176F/Q16L) (8A) and H2009 (KRASG12A;TP53R273L) (8B) cell lines were treated with vehicle control or 10 nM Bortezomib for 24 hours. NF-κB target gene expression was measured by QPCR. Error bars are s.d. (n=3). N.D. denotes not detectable. Mutation information is from the Sanger COSMIC database.
as §3

[6] = tested on: KP lung tumors; assay: CC3 immunohistochemistry in KP lung tumors; type: in vivo, mouse
Experimental: as §1
FIG. 5: Bortezomib increases survival in KP mice. (5A and 5B) Kaplan-Meier survival curve of vehicle control and bortezomib-treated KP (5A) and K (5B) mice. Arrows indicate weekly 1 mg/kg bortezomib regimen. (5C) quantification of lung tumor volume of control- and bortezomib-treated KP mice. From 10 weeks after Adeno-Cre infection, lungs were imaged by microCT to measure individual tumor volumes (n=4). Data points represent means of fold change and SD relative to 10 weeks (set to 1). Arrows indicate bortezomib injection. D, CC3 staining (×200) in lung tumors receiving 3 doses of control (“C”) and 1 final dose of bortezomib (“B,” left) or 4 doses of bortezomib (right). Tumors were harvested 48 hours after the last treatment (n=4).
FIG. 18: Bay-117082 induces apoptosis in KP lung tumors. (18A), H&E and cleaved caspase 3 (CC3) immunohistochemistry staining (200×) in vehicle control and Bay-117082 treated KP lung tumors (10 mg/kg, 48 hrs). (18B) Quantification of CC3 positive cells. Error bars are s.d. (p<0.05).
as §2, with “Slides were stained overnight at 4° in 1:100 primary antibody. A goat anti-rabbit horseradish peroxidase-conjugated secondary antibody (Vector Laboratories) was used at 1:200 dilution, incubated for 1 hour at room temperature, followed by diaminobenzidine staining (Vector Laboratories).” left out

CC(C)C[C@H](NC(=O)[C@H](Cc1ccccc1)NC(=O)c1cnccn1)B(O)O [bortezomib, N-(2-pyrazine) carbonyl-L-phenylalanine-L-leucine boronic acid]
tumor regression [1]: did not regress
side effects in the clinic [2]: manageable side effects
apoptotic cells in K-only tumors [3]: did not detect a substantial number of apoptotic cells
NF-κB target genes regulating apoptosis and survival [4]: robust downregulation
expression of NF-κB target genes MYC, BCL2, XIAP [5]: downregulated
CC3 staining after a final dose in pretreated tumors ([6]; KP mice, 3 previous doses of bortezomib, sacrificed 48 hours after final dose): no longer demonstrated significant CC3 staining
number of apoptotic (CC3) cells ([6]; KP tumors, 48 hours after a single dose): increase in the number of apoptotic cells
time course of CC3+ cell number ([6]; KP tumors, single dose, time-course): peaked at 24 and 48 hours post treatment and diminished at 96 hours
